Results as given in ChEMBL document CHEMBL1201862, “PubChem BioAssay data set” (2004).
Activity calls are given as the source filed them.

Columns and labels:
[1] = molecular target: T1, Nuclear receptor subfamily 0 group B member 1 (Homo sapiens, UniProt P51843); test: Luminescence-based cell-based high throughput dose response assay for inhibitors of the orphan nuclear receptor subfamily 0, group B, member 1 (DAX1; NR0B1). [Related pubchem assays (depositor defined):AID504766, AID504790]; format: functional
T1 sequence (P51843 whole entry): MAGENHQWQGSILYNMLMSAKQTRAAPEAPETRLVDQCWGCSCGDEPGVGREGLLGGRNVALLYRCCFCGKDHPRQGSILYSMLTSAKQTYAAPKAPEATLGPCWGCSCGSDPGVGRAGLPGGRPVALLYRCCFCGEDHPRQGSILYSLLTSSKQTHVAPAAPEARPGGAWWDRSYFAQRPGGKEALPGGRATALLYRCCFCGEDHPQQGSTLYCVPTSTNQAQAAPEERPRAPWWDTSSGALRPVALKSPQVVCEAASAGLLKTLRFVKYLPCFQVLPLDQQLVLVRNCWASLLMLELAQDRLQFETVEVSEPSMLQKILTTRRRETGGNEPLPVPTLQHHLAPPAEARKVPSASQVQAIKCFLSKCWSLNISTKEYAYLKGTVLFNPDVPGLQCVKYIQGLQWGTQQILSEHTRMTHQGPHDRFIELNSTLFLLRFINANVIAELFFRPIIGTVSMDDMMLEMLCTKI

HEK293 [2] = test: cells; format: functional, cell-based; conditions: Homo sapiens
[3] = molecular target: UDP-galactopyranose mutase (Mycobacterium tuberculosis, UniProt P9WIQ1); test: Inhibitors of Mycobacterium tuberculosis UDP-galactopyranose mutase (UGM) enzyme Measured in Biochemical System Using Plate Reader - 2105-02_Inhibitor_Dose_CherryPick_Activity. [Related pubchem assays (depositor defined):AID504439]
Chain of UDP-galactopyranose mutase (P9WIQ1 whole entry): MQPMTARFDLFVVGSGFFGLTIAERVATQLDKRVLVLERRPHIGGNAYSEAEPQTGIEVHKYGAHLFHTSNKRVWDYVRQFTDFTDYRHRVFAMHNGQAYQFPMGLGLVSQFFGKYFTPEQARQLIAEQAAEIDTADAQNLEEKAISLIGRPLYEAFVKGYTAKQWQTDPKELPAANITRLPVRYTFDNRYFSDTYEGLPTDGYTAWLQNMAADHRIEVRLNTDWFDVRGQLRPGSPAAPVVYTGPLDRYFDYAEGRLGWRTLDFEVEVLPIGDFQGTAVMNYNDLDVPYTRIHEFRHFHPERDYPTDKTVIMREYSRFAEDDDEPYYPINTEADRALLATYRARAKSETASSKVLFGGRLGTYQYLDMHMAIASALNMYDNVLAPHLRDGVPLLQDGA

Phospholipase D2 [4] = molecular target: T2, Phospholipase D2 (Homo sapiens, UniProt O14939); test: PLD2 purified enzyme concentration response. [Related pubchem assays (depositor defined):AID588854]; format: functional
T2 sequence (O14939 whole entry): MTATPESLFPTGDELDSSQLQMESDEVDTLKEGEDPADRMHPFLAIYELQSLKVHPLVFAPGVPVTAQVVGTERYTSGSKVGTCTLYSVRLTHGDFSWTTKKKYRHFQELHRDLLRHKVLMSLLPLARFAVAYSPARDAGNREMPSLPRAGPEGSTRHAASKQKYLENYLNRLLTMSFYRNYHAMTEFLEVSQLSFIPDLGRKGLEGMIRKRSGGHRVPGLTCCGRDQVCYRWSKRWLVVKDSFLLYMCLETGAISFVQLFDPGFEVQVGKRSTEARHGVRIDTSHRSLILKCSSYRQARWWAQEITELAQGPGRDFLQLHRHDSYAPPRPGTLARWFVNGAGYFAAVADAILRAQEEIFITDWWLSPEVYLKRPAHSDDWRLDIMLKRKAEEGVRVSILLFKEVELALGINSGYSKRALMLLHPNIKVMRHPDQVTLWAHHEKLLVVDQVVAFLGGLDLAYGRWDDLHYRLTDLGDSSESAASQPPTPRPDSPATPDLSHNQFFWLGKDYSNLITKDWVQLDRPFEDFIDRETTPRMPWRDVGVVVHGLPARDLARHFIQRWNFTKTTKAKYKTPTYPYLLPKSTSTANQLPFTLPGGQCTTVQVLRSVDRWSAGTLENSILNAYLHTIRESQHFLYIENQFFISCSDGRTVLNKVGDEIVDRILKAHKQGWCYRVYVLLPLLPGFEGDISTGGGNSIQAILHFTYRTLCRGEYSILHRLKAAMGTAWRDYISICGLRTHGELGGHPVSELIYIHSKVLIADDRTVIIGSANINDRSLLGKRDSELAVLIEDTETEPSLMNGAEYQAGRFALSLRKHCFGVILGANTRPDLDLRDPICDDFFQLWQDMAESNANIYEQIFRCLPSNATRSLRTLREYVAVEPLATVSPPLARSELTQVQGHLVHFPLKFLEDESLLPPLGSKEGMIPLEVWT

Phospholipase D2 [5] = molecular target: T2, Phospholipase D2; test: cellular phospholipase D2 inhibition IC50 – cell-based, dose response (AID 602147); format: functional;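 also: cellular assay in HEK293 cells overexpressing GFP-tagged PLD2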
Phospholipase D1 = Phospholipase D1 (Homo sapiens, UniProt Q13393); test: PLD1 purified enzyme concentration response. [Related pubchem assays (depositor defined):AID588854]; format: functional
Chain of Phospholipase D1 (Q13393 whole entry): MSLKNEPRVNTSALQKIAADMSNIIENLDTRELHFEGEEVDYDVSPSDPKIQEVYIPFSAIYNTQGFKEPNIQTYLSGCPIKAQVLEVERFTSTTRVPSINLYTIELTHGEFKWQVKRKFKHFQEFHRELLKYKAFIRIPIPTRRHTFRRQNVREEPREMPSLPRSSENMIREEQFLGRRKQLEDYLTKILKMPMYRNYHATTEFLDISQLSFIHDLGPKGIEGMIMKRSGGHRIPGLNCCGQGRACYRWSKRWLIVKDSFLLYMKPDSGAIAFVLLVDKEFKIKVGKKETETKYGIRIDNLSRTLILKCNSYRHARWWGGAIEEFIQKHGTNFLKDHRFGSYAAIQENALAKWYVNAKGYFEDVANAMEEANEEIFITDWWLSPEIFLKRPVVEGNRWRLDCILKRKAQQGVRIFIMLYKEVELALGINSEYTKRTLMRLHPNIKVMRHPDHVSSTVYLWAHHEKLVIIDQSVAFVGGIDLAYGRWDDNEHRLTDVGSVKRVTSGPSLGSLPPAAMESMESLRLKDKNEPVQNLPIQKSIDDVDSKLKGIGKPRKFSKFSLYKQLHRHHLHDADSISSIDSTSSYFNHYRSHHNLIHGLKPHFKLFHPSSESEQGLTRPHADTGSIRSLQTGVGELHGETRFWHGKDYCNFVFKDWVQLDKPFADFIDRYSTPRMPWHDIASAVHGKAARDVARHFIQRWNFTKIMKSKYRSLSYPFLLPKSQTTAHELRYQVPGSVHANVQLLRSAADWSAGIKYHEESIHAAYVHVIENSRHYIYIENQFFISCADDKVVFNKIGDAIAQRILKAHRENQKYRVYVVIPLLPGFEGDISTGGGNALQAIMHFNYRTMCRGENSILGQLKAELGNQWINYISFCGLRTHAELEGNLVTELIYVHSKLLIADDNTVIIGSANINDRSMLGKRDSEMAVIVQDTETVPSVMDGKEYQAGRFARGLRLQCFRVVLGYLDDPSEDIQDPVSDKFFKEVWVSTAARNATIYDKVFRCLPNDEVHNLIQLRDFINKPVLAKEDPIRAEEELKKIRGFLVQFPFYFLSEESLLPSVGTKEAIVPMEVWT

[6] = molecular target: Beta-2 adrenergic receptor (Homo sapiens, UniProt P07550); test: ADRB2 activation measured by internalization – cell-based, FAP fluorogen, flow cytometry, cherry pick 1, dose response (AID 588763); format: functional
Chain of Beta-2 adrenergic receptor (P07550 whole entry): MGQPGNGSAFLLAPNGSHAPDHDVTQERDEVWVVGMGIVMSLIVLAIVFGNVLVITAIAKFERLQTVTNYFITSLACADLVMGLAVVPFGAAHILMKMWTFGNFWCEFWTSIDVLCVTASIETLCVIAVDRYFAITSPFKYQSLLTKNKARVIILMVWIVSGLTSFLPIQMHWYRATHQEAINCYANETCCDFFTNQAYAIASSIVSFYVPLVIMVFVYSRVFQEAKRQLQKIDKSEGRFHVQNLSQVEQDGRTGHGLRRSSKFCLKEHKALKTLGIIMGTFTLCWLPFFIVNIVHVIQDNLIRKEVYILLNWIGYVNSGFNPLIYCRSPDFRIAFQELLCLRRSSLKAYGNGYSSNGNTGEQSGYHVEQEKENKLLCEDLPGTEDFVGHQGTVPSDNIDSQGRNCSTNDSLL

A-375 [7] = test: proliferation inhibition in MITF-low A375 cells – cell-based, cherry-pick samples, set 2, counter-screen for MITF modulator project, dose response (AID 540335); format: functional; conditions: Homo sapiens
A-375 [8] = test: MITF: Counter assay: A375 proliferation Measured in Cell-Based System Using Plate Reader - 2084-03_Inhibitor_Dose_DryPowder_Activity. [Related pubchem assays (depositor defined):AID488944]; format: functional; conditions: Homo sapiens
[9] = viability loss in Vero cells – cytotoxicity control for Vif-APOBEC3G degradation inhibitor project, dose response (AID 1117358); format: functional; conditions: Vero
[10] = molecular target: Dual specificity tyrosine-phosphorylation-regulated kinase 1A (Rattus norvegicus, UniProt Q63470); format: biochemical, Homo sapiens
[11] = molecular target: Dual specificity protein kinase CLK1 (Homo sapiens, UniProt P49759); test: inhibition of human CLK1 activity – biochemical, cherry-picked samples, selectivity assay for Dyrk1A inhibitor project, dose response (AID 588811)
Chain of Dual specificity protein kinase CLK1 (P49759 whole entry): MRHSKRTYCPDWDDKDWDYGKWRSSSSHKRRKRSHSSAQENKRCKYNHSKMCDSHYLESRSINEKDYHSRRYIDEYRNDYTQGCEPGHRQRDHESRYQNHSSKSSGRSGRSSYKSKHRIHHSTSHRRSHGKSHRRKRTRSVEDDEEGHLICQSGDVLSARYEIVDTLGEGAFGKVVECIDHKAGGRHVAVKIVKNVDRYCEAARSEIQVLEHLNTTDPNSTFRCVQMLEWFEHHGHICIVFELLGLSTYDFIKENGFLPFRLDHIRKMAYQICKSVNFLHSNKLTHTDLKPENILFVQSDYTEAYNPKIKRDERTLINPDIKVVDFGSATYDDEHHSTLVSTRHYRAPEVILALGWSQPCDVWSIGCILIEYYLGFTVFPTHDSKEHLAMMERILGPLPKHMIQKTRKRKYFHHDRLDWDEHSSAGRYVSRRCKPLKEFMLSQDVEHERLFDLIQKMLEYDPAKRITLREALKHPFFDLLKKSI

HEK293 [12] = test: SAR Analysis of small molecule inhibitors of B-cell specific antigen receptor-induced NF-kB activation in a HEK-293T cell line using a luminescence assay - Set 2. [Related pubchem assays (depositor defined):AID435022, AID435025, AID489021]; format: functional, cell-based; conditions: Homo sapiens
HEK293 [13] = test: HEK293T cell viability loss, resazurin readout – resazurin fluorescence, cytotoxicity control for NF-kB activator project, SAR follow-up (AID 493251); format: functional, cell-based; conditions: Homo sapiens
Jurkat = test: SAR Analysis of small molecule inhibitors of […] specific antigen receptor-induced NF-kB activation in a Jurkat cell line using a luminescence assay - Set 3. [Related pubchem assays (depositor defined):AID435022, AID435025, AID465]; format: functional, cell-based; conditions: Homo sapiens
[14] = molecular target: Glyceraldehyde-3-phosphate dehydrogenase (Homo sapiens, UniProt P04406)
Chain of Glyceraldehyde-3-phosphate dehydrogenase (P04406 whole entry): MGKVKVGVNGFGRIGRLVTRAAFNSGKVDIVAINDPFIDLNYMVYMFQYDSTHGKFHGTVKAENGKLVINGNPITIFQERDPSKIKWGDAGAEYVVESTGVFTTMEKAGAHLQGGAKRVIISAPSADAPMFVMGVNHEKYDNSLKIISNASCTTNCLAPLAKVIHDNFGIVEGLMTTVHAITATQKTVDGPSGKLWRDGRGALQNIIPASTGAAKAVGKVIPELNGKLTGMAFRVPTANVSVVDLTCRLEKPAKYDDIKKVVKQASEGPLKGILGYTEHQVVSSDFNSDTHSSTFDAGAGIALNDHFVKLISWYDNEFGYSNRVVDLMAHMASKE

[15] = molecular target: Heat shock 70 kDa protein 1A (Homo sapiens, UniProt P0DMV8); test: inhibition of Hsp70 binding activity – biochemical, fluorescence polarization, SAR follow-up (AID 1072)
[16] = molecular target: T3, Dual specificity protein phosphatase 6 (Rattus norvegicus, UniProt Q64346)
T3 sequence (Q64346 whole entry): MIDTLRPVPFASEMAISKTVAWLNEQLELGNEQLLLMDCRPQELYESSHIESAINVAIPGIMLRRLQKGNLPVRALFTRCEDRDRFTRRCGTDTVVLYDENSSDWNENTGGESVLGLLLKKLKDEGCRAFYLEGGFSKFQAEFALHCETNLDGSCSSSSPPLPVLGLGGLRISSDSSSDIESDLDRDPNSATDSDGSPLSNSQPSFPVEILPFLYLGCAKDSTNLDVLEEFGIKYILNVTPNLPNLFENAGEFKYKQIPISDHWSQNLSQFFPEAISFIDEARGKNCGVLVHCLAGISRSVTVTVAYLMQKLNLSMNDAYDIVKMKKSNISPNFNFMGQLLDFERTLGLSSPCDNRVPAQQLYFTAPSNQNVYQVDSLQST

[17] = molecular target: T4, Tyrosine-protein phosphatase non-receptor type 7 (Homo sapiens, UniProt P35236); format: functional
T4 sequence (P35236 whole entry): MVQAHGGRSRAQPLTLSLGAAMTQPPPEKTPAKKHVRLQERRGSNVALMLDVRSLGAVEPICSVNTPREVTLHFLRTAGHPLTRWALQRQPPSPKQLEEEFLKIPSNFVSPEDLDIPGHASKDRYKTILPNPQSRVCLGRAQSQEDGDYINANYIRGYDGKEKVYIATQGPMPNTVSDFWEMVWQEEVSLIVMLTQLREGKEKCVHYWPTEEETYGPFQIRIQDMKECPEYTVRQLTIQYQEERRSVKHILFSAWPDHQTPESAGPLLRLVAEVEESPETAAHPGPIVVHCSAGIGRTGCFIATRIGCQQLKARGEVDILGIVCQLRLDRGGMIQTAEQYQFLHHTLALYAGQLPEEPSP

[18] = molecular target: Heat shock cognate 71 kDa protein (Homo sapiens, UniProt P11142); test: In Vitro Hsc70 Dose Response Fluorescence Polarization Assay. [Related pubchem assays: 1072 ]
Chain of Heat shock cognate 71 kDa protein (P11142 whole entry): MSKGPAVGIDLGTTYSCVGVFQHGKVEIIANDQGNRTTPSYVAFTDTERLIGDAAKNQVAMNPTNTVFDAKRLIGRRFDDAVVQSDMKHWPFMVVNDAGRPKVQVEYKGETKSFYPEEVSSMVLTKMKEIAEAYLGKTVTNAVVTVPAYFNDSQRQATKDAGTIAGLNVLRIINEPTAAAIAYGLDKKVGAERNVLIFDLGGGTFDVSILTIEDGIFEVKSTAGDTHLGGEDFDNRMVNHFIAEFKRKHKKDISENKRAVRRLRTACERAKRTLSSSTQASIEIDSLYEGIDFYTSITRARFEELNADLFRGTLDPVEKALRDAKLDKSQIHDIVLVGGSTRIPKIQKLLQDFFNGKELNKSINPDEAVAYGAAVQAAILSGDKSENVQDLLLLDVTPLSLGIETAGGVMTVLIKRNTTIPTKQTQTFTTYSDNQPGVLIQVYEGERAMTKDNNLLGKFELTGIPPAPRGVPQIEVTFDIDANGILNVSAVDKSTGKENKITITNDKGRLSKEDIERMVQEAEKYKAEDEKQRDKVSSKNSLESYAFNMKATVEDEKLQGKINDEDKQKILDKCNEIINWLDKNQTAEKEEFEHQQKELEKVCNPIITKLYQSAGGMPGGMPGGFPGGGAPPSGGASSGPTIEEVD

[19] = molecular target: T3, Dual specificity protein phosphatase 6; format: functional
Hexokinase-1 = molecular target: T5, Hexokinase-1 (Homo sapiens, UniProt P19367); test: SAR analysis of small molecule inhibitors of hexokinase domain containing I (HKDC1) in the hexokinase 1 selectivity assay. [Related pubchem assays (depositor defined):AID493160, AID493190]; format: functional
T5 sequence (P19367 whole entry): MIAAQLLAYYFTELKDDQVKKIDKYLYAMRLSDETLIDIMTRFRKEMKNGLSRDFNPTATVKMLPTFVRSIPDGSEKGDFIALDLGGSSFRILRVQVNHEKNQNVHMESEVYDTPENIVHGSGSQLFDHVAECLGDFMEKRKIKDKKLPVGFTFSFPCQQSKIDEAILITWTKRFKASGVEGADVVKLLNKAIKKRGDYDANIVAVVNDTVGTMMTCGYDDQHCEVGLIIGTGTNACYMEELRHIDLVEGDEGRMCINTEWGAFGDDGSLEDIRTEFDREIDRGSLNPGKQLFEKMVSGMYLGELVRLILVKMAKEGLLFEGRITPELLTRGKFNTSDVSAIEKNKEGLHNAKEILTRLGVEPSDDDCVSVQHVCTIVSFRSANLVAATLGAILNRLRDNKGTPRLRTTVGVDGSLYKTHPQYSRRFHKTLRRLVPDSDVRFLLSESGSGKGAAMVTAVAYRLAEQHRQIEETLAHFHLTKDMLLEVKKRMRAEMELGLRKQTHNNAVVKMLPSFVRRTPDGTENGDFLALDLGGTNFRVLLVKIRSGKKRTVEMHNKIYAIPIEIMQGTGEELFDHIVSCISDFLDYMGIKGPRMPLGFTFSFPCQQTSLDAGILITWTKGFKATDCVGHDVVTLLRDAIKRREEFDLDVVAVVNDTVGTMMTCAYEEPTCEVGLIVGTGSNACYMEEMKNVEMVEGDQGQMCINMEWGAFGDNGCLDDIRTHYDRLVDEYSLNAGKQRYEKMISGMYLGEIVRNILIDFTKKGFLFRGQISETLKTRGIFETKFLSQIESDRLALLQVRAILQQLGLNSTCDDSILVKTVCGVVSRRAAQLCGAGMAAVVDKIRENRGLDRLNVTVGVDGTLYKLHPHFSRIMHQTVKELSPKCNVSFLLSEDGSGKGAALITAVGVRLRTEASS

Hexokinase HKDC1 = molecular target: T6, Hexokinase HKDC1 (Homo sapiens, UniProt Q2TB90); test: SAR analysis of small molecule inhibitors of hexokinase domain containing I (HKDC1). [Related pubchem assays (depositor defined):AID493160, AID493190]; format: functional
T6 sequence (Q2TB90 whole entry): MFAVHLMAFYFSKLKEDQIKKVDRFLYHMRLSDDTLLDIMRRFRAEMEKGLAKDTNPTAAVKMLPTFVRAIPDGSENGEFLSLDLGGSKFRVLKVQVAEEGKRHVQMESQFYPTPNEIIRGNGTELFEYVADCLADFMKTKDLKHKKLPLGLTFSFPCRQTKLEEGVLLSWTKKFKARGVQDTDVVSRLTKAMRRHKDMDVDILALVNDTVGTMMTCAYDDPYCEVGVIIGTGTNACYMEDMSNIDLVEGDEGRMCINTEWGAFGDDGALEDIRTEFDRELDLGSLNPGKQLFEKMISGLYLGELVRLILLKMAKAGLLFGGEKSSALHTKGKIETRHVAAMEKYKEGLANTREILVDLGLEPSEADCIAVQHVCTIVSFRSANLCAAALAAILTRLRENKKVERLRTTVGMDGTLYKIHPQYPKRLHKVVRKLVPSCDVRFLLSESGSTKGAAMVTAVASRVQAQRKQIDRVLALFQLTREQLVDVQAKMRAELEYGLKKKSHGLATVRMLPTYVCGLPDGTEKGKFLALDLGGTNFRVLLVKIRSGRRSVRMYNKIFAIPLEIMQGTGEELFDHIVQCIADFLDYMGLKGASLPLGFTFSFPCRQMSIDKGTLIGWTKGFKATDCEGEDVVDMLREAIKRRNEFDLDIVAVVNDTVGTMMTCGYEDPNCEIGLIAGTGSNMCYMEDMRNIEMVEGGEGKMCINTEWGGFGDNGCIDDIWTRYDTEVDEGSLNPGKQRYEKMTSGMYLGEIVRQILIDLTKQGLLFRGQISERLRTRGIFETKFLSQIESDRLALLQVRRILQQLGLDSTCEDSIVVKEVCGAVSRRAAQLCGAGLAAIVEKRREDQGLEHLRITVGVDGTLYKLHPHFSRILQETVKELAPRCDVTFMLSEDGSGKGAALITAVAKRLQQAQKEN

[20] = Luminescence Cell-Based Dose Retest to Confirm Inhibitors of Cancer Stem Cells. [Related pubchem assays (depositor defined):AID2717, AID2721]; format: functional; conditions: Homo sapiens
[21] = molecular target: FAD-linked sulfhydryl oxidase ALR (Homo sapiens, UniProt P55789); test: ALR-catalysed DTT oxidation blockers – biochemical, H2O2 detection, luminescence, cherry-pick, dose response (AID 493248)
Chain of FAD-linked sulfhydryl oxidase ALR (P55789 whole entry): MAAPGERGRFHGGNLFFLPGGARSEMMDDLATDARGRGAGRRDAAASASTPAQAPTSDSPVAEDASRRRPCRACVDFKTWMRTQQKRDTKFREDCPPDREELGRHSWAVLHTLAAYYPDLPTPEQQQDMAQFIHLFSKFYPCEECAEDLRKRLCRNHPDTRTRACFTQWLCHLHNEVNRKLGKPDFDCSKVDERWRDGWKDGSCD

[22] = molecular target: Matrix metalloproteinase-14 (Homo sapiens, UniProt P50281); test: Dose Response confirmation of uHTS hits for a small molecule inhibitors of MT1-MMP activation in a fluorescence assay set 2.; format: functional
[23] = viability loss of HMLE_sh_eGFP cells – cell-based, luminescence, counter-screen for HMLE_sh_ECad selective toxicity project, dose response (AID 463074); format: functional, Homo sapiens;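 also: HMLE human mammary epithelial cells expressing control shRNA against eGFP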

## O=C(CSc1nnc(NC2CCCCC2)s1)Nc1ccc2c(c1)C(=O)c1ccccc1C2=O
[1]
  IC50: > 67.5 µM (inactive)
HEK293 [2]
  IC50: > 67.5 µM (inactive)

## Cc1cc(C)c(S(=O)(=O)Nc2ccc(C(=O)O)cc2)cc1S(=O)(=O)Nc1ccc(C(=O)O)cc1
[3]
  AC50: 423 µM (active)

## O=C(NCCN1CCC2(CC1)C(=O)NCN2c1ccc(F)cc1)c1cc2cc(F)ccc2[nH]1
Phospholipase D2 [4]
  IC50: 0.066 µM (active)
Phospholipase D2 [5]
  IC50: 0.027 µM (active)
Phospholipase D1
  IC50: 5.5 µM (active)

## O=C(CCCCCn1c(=O)[nH]c2ccsc2c1=O)NCc1ccc2c(c1)OCO2
[6]
  EC50: 0.0393 µM (active)

## CC(=O)c1ccc(N/C=C/C(=O)c2ccc(Br)cc2)cc1
A-375 [7]
  AC50: > 35 µM (active)
A-375 [8]
  AC50: > 35 µM (active)

## O=C(Nc1nc2ccc(Cl)cc2s1)C1CCCO1 (configuration not stated)
[9]
  CC50: > 40 µM (active)
[10]
  AC50: 2.01 µM (active)
[11]
  AC50: 2.03 µM (active)

## CCOc1ccc(-c2nc(CSCC(=O)NCc3ccccc3)c(C)o2)cc1
HEK293 [12]
  IC50: 21.6 µM (inactive)
HEK293 [13]
  IC50: 49.3 µM (inactive)
Jurkat
  IC50: > 80 µM (inactive)

## Cc1cc(I)cc2c1NC(C(=O)O)C1CC=CC21 (configuration not stated)
[14]
  IC50: > 100 µM (not active)
[15]
  IC50: > 100 µM (not active)
[16]
  IC50: > 100 µM (inactive)
[17]
  IC50: > 100 µM (not active)
[18]
  IC50: > 100 µM (not active)
[19]
  IC50: > 100 µM (inactive)

## O=c1c2ccccc2nc(/C=C/c2ccccc2)n1-c1ccccc1
Hexokinase-1
  IC50: > 80 µM (inactive)
Hexokinase HKDC1
  IC50: > 80 µM (inactive)

## O=C(NNc1c2ccccc2nc2ccccc12)c1ccccc1O
[20]
  AC50: 18.3 µM (active)
[21]
  AC50: 0.08 µM (active)
[22]
  IC50: 60.8 µM (inactive)
[23]
  AC50: 22.8 µM (active)
